Experiments:
Experiment in all cases: KinaseProfiler Assay
NEK7(h) = NEK7(h) (Homo sapiens, UniProt Q8TDX7)
Itk(h) = target: T1, Itk(h) (Homo sapiens, UniProt Q08881)
T1 sequence (Q08881 1-620): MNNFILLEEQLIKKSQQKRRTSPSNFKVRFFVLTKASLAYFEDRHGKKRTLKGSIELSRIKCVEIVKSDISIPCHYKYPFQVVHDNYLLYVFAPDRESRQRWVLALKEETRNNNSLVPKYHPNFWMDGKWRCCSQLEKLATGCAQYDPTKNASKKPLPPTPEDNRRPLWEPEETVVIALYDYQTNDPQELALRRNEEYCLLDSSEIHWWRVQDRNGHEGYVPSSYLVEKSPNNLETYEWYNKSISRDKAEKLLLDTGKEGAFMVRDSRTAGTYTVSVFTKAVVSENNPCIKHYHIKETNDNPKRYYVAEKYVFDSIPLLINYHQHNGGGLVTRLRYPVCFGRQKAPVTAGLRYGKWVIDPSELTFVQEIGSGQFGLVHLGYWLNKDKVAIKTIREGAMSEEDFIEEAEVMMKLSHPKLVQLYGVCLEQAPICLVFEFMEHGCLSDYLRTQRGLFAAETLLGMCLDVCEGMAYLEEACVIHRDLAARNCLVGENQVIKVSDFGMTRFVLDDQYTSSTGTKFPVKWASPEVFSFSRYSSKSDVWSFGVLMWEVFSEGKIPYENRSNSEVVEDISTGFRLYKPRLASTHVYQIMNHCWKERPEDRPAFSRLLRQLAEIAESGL

CHK2(R145W)(h) = CHK2(R145W)(h) (Homo sapiens, UniProt O96017, R145W)
PDK1(h) = target: T2, PDK1(h) (Homo sapiens, UniProt O15530)
T2 sequence (O15530 1-556): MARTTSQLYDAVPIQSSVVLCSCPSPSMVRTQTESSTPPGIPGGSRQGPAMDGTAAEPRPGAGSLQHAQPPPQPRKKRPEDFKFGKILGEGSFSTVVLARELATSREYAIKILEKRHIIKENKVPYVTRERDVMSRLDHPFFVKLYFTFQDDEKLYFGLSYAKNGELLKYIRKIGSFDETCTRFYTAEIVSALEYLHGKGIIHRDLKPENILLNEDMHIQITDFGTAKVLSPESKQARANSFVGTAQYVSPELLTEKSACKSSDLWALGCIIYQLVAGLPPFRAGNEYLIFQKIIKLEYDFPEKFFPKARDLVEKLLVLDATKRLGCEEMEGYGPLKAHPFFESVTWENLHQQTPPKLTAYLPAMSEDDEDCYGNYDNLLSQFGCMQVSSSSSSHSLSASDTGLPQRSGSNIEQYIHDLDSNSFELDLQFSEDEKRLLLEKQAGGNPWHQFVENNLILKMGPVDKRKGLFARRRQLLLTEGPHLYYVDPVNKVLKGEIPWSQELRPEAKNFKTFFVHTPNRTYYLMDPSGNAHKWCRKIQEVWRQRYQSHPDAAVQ

EphA1(h) = target: T3, EphA1(h) (Homo sapiens, UniProt P21709)
T3 sequence (P21709 26-976): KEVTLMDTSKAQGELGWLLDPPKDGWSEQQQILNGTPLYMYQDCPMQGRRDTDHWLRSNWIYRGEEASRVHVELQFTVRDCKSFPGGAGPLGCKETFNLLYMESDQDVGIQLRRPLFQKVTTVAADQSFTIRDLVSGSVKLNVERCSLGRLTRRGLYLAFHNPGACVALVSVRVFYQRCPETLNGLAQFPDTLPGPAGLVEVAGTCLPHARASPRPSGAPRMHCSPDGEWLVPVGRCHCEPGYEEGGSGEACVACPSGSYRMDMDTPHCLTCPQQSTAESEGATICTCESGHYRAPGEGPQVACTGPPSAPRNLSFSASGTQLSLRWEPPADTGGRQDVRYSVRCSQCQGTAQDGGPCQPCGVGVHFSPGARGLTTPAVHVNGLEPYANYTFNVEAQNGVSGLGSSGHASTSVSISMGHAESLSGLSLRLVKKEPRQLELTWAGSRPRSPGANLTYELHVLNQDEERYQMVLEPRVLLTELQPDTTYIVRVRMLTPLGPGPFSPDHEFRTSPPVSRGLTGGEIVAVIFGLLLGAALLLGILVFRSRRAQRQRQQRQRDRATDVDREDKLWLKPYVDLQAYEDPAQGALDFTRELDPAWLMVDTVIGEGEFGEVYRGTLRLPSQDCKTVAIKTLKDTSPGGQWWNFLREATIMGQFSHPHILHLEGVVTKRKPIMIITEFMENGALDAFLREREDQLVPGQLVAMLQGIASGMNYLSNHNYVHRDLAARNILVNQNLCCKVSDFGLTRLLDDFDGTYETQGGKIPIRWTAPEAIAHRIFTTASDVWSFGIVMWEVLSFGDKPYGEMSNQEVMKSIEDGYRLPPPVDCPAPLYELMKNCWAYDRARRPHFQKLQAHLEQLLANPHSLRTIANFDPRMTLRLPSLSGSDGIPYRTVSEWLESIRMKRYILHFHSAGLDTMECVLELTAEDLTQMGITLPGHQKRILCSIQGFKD

Chain of NEK7(h) (Q8TDX7 whole entry): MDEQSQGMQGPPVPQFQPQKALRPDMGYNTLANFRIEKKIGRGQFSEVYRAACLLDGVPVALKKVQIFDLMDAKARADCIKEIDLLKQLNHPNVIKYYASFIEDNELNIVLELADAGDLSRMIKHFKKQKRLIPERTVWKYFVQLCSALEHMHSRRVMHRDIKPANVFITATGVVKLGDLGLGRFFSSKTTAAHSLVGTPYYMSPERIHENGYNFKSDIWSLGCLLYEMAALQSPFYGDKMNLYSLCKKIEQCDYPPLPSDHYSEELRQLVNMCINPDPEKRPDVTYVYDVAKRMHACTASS
Chain of CHK2(R145W)(h) (O96017 whole entry R145W): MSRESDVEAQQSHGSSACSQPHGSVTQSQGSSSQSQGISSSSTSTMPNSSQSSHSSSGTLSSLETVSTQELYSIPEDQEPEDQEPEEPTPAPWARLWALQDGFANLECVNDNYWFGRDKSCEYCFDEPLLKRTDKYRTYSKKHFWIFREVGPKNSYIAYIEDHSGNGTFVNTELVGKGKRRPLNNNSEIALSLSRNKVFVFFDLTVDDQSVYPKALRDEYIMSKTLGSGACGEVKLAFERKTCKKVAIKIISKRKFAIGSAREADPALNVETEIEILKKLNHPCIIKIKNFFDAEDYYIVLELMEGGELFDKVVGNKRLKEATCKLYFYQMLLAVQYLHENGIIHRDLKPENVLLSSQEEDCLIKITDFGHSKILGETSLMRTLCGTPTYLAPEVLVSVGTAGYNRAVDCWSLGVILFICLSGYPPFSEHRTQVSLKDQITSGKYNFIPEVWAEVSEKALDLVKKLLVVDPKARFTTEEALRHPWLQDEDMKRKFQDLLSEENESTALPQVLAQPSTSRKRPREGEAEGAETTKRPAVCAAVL

CC(C)CCC(=O)[C@]1(O)C(O)=C(C(=O)C(C)C)C(=O)[C@H]1CCC(C)C [TH2, tetrahydroiso-cohumulone]
kinase inhibition (NEK7(h); 1 μg/ml): 103% of control
kinase inhibition (NEK7(h); 5 μg/ml): 107% of control
kinase inhibition (NEK7(h); 25 μg/ml): 98% of control
kinase inhibition (NEK7(h); 50 μg/ml): 95% of control
kinase inhibition (NEK7(h); 100 μg/ml): 84% of control
kinase inhibition (Itk(h); 1 μg/ml): 101% of control
kinase inhibition (Itk(h); 5 μg/ml): 103% of control
kinase inhibition (Itk(h); 25 μg/ml): 87% of control
kinase inhibition (Itk(h); 50 μg/ml): 82% of control
kinase inhibition (Itk(h); 100 μg/ml): 87% of control
kinase inhibition (CHK2(R145W)(h); 1 μg/ml): 110% of control
kinase inhibition (CHK2(R145W)(h); 5 μg/ml): 112% of control
kinase inhibition (CHK2(R145W)(h); 25 μg/ml): 99% of control
kinase inhibition (CHK2(R145W)(h); 50 μg/ml): 86% of control
kinase inhibition (CHK2(R145W)(h); 100 μg/ml): 80% of control
kinase inhibition (PDK1(h); 1 μg/ml): 122% of control
kinase inhibition (PDK1(h); 5 μg/ml): 123% of control
kinase inhibition (PDK1(h); 25 μg/ml): 102% of control
kinase inhibition (PDK1(h); 50 μg/ml): 87% of control
kinase inhibition (PDK1(h); 100 μg/ml): 69% of control
kinase inhibition (EphA1(h); 1 μg/ml): 117% of control
kinase inhibition (EphA1(h); 5 μg/ml): 116% of control
kinase inhibition (EphA1(h); 25 μg/ml): 108% of control
kinase inhibition (EphA1(h); 50 μg/ml): 99% of control
kinase inhibition (EphA1(h); 100 μg/ml): 85% of control

Source: patent US20100137449A1, “SUBSTITUTED 1,3-CYCLOPENTADIONE MULTI-TARGET PROTEIN KINASE MODULATORS OF CANCER, ANGIOGENESIS AND THE INFLAMMATORY PATHWAYS ASSOCIATED THEREWITH” (METAPROTEOMICS, LLC, priority 2007, published 2010)
